Experimental data taken from patent US9302999B2, “Substituted triazoles as herbicides” (E. I. DU PONT DE NEMOURS AND COMPANY, priority 2012, dated 2016).

How the values were obtained:
Format in all cases: in vivo
[1] = system: foxtail, green (green foxtail, Setaria viridis); assay: Test D pre-/postemergence: foxtail, green
How it was run: (§1)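 Visual ratings from 0 (no effect) to 100 (complete control) were made 14–21 days after treatment, relative to controls. Applications were preemergence to seeds in silt loam, or postemergence to 2–18 cm (1–4 leaf) plants in peat-based medium. Compounds were formulated in a surfactant-containing non-phytotoxic solvent.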

[2] = system: deadnettle (henbit deadnettle, Lamium amplexicaule); assay: Test D pre-/postemergence: deadnettle
How it was run: as §1

kochia (Kochia scoparia) = assay: Test D pre-/postemergence: kochia
How it was run: as §1

[3] = system: lambsquarters (Chenopodium album); assay: Test D pre-/postemergence: lambsquarters
How it was run: as §1

[4] = system: mustard, wild (wild mustard, Sinapis arvensis); assay: Test D pre-/postemergence: mustard, wild
Excerpt: Seeds of plant species selected from bluegrass (annual bluegrass, Poa annua), blackgrass (Alopecurus myosuroides), canarygrass (Phalaris minor), chickweed (common chickweed, Stellaria media), galium (catchweed bedstraw, Galium aparine), bromegrass, downy (downy bromegrass, Bromus tectorum), field poppy (Papaver rhoeas), field violet (Viola arvensis), foxtail, green (green foxtail, Setaria viridis), deadnettle (henbit deadnettle, Lamium amplexicaule), ryegrass, Italian (Italian ryegrass, Lolium multiflorum), kochia (Kochia scoparia), lambsquarters (Chenopodium album), oilseed rape (Brassica napus), pigweed (Amaranthus retroflexus), Russian thistle (Salsola iberica), chamomile (scentless chamomile, Matricaria inodora), speedwell (bird's-eye speedwell, Veronica persica), barley, spring (spring barley, Hordeum vulgare), wheat, spring (spring wheat, Triticum aestivum), buckwheat, wild (wild buckwheat, Polygonum convolvulus), mustard, wild (wild mustard, Sinapis arvensis), oat, wild (wild oat, Avena fatua), radish, wild (wild radish, Raphanus raphanistrum), windgrass (Apera spica-venti), barley, winter (winter barley, Hordeum vulgare), and wheat, winter (winter wheat, Triticum aestivum) were planted into a silt loam soil and treated preemergence with test chemicals formulated in a non-phytotoxic solvent mixture which included a surfactant. At the same time, these same crop and weed species were planted in pots containing the planting medium comprising spaghnum peat moss, vermiculite, wetting agent and starter nutrients and treated with postemergence applications of the test chemicals formulated in the same manner. Plants ranged in height from 2 to 18 cm (1- to 4-leaf stage).
Treated plants and controls were maintained in a controlled growth environment for 14 to 21 days after which time all species were compared to controls and visually evaluated. Plant response ratings, summarized in Table D, are based on a scale of 0 to 100 where 0 is no effect and 100 is complete control. A dash (-) response means no test result.

[5] = Postemergence, 31 g ai/ha, scale 0 to 100 (0 no effect, 100 complete control)
[6] = Postemergence, 62 g ai/ha, scale 0 to 100 (0 no effect, 100 complete control)
[7] = Postemergence, 125 g ai/ha, scale 0 to 100, 0 no effect, 100 complete control
[8] = Postemergence, 16 g ai/ha, scale 0 to 100
[9] = Preemergence, 16 g ai/ha, scale 0 to 100, 0 no effect, 100 complete control
[10] = Preemergence, 31 g ai/ha, scale 0 to 100, 0 no effect, 100 complete control
[11] = Preemergence, 62 g ai/ha, scale 0 to 100
[12] = Preemergence, 125 g ai/ha, scale 0 to 100

With `Cc1nn(-c2ccc(F)c(C(F)(F)F)c2)nc1Cc1ccnc(C(F)(F)F)c1` [Compound 156] the “Plant response rating: Foxtail, Green” value [1, 5] was 25, the “Plant response rating: Foxtail, Green” value [1, 6] was 25 and the “Plant response rating: Foxtail, Green” value [1, 7] was 65. The “Plant response rating, Foxtail, Green” value [1, 8] was 10, the “Plant response rating, Foxtail, Green” value [1, 9] was 5 and the “Plant response rating, Foxtail, Green” value [1, 10] was 10. The “Plant response rating, Foxtail, Green” value [1, 11] was 30, the “Plant response rating, Foxtail, Green” value [1, 12] was 100 and the “Plant response rating: Deadnettle” value [2, 5] was 85. The “Plant response rating: Deadnettle” value [2, 6] was 100, the “Plant response rating: Deadnettle” value [2, 7] was 100 and the “Plant response rating, Deadnettle” value [2, 8] was 70. For the same compound, the “Plant response rating, Deadnettle” value [2, 9] was 5, the “Plant response rating, Deadnettle” value [2, 10] was 15 and the “Plant response rating, Deadnettle” value [2, 11] was 100. For the same compound, the “Plant response rating, Deadnettle” value [2, 12] was 100, the “Plant response rating: Kochia” value (kochia (Kochia scoparia); [5]) was 80 and the “Plant response rating: Kochia” value (kochia (Kochia scoparia); [6]) was 95. For the same compound, the “Plant response rating: Kochia” value (kochia (Kochia scoparia); [7]) was 90, the “Plant response rating, Kochia” value (kochia (Kochia scoparia); [8]) was 75 and the “Plant response rating, Kochia” value (kochia (Kochia scoparia); [9]) was 10. For the same compound, the “Plant response rating, Kochia” value (kochia (Kochia scoparia); [10]) was 30, the “Plant response rating, Kochia” value (kochia (Kochia scoparia); [11]) was 65 and the “Plant response rating, Kochia” value (kochia (Kochia scoparia); [12]) was 80. The “Plant response rating: Lambsquarters” value [3, 5] was 90, the “Plant response rating: Lambsquarters” value [3, 6] was 85 and the “Plant response rating: Lambsquarters” value [3, 7] was 95. The “Plant response rating, Lambsquarters” value [3, 8] was 85, the “Plant response rating, Lambsquarters” value [3, 9] was 25 and the “Plant response rating, Lambsquarters” value [3, 10] was 30. For the same compound, the “Plant response rating, Lambsquarters” value [3, 11] was 85, the “Plant response rating, Lambsquarters” value [3, 12] was 100 and the “Plant response rating: Mustard, Wild” value [4, 5] was 95. For the same compound, the “Plant response rating: Mustard, Wild” value [4, 6] was 100, the “Plant response rating: Mustard, Wild” value [4, 7] was 100 and the “Plant response rating, Mustard, Wild” value [4, 8] was 100. For the same compound, the “Plant response rating, Mustard, Wild” value [4, 9] was 10, the “Plant response rating, Mustard, Wild” value [4, 10] was 85 and the “Plant response rating, Mustard, Wild” value [4, 11] was 95. The “Plant response rating, Mustard, Wild” value [4, 12] was 100.
